Measured values reported in PubChem BioAssay (NCI).
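Following 48 hours of exposure in 96-well plates, responses at five concentrations were used to interpolate endpoints linearly. GI50 is the concentration that inhibits growth by half. TGI marks complete inhibition of growth.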

Tests used:
Assay in all cases: NCI tumour cell line growth inhibition, 48 h
NCI/ADR-RES ovarian = tested on: NCI/ADR-RES ovarian
A549 NSCLC = tested on: A549 NSCLC
CAKI-1 renal = tested on: CAKI-1 renal
K-562 leukemia = tested on: K-562 leukemia
SR leukemia = tested on: SR leukemia
MDA-MB-231 breast = tested on: MDA-MB-231 breast
BT-549 breast = tested on: BT-549 breast
KM12 colon = tested on: KM12 colon
NCI-H522 lung = tested on: NCI-H522 lung
786-0 renal = tested on: 786-0 renal

Structure (SMILES) | TGI (NCI/ADR-RES ovarian) | TGI (A549 NSCLC) | TGI (CAKI-1 renal) | TGI (K-562 leukemia) | TGI (SR leukemia) | TGI (MDA-MB-231 breast) | GI50 (NCI/ADR-RES ovarian) | GI50 (BT-549 breast) | TGI (BT-549 breast) | GI50 (A549 NSCLC) | GI50 (CAKI-1 renal) | GI50 (KM12 colon) | TGI (KM12 colon) | GI50 (K-562 leukemia) | GI50 (SR leukemia) | GI50 (NCI-H522 lung) | TGI (NCI-H522 lung) | GI50 (MDA-MB-231 breast) | TGI (786-0 renal)
COc1ccc2c(c1)CC[C@@H]1[C@@H]2CC[C@]2(C)C(=O)/C(=C/c3ccc(O)c(OC)c3)C[C@@H]12 | > 100 µM | > 100 µM | > 100 µM | > 100 µM | > 100 µM | > 100 µM |  |  |  |  |  |  |  |  |  |  |  |  | 
COc1ccc2nc3ccccc3c(NCc3ccc(C)cc3)c2c1 | 4.98 µM | 4.71 µM | 2.98 µM | > 100 µM | 6.04 µM | 4.12 µM | 1.79 µM | 2.01 µM | 4.7 µM | 1.96 µM | 1.59 µM | 2.6 µM | 8.49 µM | 1.61 µM | 1.81 µM | 1.94 µM | 4.67 µM | 1.76 µM | 
C[C@]12CCC(=O)C=C1CC[C@@H]1[C@@H]2[C@@H](O)C[C@@]2(C)[C@H]1CC[C@]2(O)C(=O)COC(=O)C1CCCC1 | > 100 µM | > 100 µM | > 100 µM | > 100 µM | > 100 µM | > 100 µM |  |  | > 100 µM |  |  |  | > 100 µM |  |  |  | > 100 µM |  | > 100 µM
C[N+](C)(CCO)CCN1c2ccccc2Sc2ccccc21 | > 10 µM | > 10 µM | > 10 µM | > 10 µM | > 10 µM | > 10 µM |  |  |  |  |  |  | > 10 µM |  |  |  | > 10 µM |  | 
Cc1ccc(SSCCCCCS(=O)O)cc1 |  |  |  | > 100 µM | 28.9 µM |  |  |  |  |  |  |  | > 100 µM |  |  |  | 27.9 µM |  | 
Nc1nc(=O)n(CC(O)CO)s1 (stereo unspecified) |  | > 100 µM |  | > 100 µM | > 100 µM |  |  |  |  |  |  |  |  |  |  |  |  |  | 
O=C(COc1ccc(Cl)cc1Cl)N/N=C/C=C/c1ccc([N+](=O)[O-])o1 | > 100 µM | > 100 µM | > 100 µM | > 100 µM |  | 95.6 µM |  |  | 58 µM |  |  |  | > 100 µM |  |  |  | 2.83 µM |  | 65.9 µM
Cn1c(=O)c2c(nc(NCCNc3nc4c(c(=O)n(C)c(=O)n4C)n3C)n2C)n(C)c1=O | > 100 µM | > 100 µM | > 100 µM | > 100 µM | > 100 µM | > 100 µM |  |  | > 100 µM |  |  |  | > 100 µM |  |  |  | > 100 µM |  | > 100 µM
O=C(NNC(=O)c1nsc2ccccc12)c1ccc(Cl)cc1 |  | 45.9 µM |  | 35.1 µM | 75.5 µM |  |  |  |  |  |  |  | 65.7 µM |  |  |  |  |  | 
COc1ccc(C2C(C=O)C(N3CCN(C)CC3)=Nc3nc4ccccc4n32)cc1 (stereo unspecified) | 53.7 µM | 38.5 µM | 52.4 µM | 14.9 µM | 2.35 µM | 31.4 µM |  |  | 29.4 µM |  |  |  | 50.6 µM |  |  |  | 25.6 µM |  | > 100 µM
Fc1c(F)c(C(F)(F)F)c(F)c(F)c1N/N=C/c1cn(Cc2ccccc2)c2ccccc12 | 59.1 µM | 72.7 µM | 54.3 µM | 87.1 µM | 67 µM | 45.6 µM |  |  | 80.7 µM |  |  |  | 45 µM |  |  |  | 70.1 µM |  | 66.8 µM
N#C[S-].[Ce+3].c1cnc2c(c1)ccc1cccnc12.c1cnc2c(c1)ccc1cccnc12.c1cnc2c(c1)ccc1cccnc12 |  | 10.1 µM | 14.3 µM | > 100 µM | > 100 µM |  |  |  |  |  |  |  | 18.3 µM |  |  |  | 21.1 µM |  | 11.1 µM
O=S(O)c1cc(Cl)cc(Cl)c1OCc1ccccc1 |  |  |  | > 100 µM | > 100 µM |  |  |  |  |  |  |  | > 100 µM |  |  |  | > 100 µM |  | 
CC(=O)C1=C(O)CCC1=O | > 100 µM | > 100 µM | > 100 µM | > 100 µM | > 100 µM |  |  |  | > 100 µM |  |  |  | > 100 µM |  |  |  | > 100 µM |  | 
NC(CC(=O)O)(Cc1ccccc1)C(=O)O (stereo unspecified) | > 100 µM | > 100 µM | > 100 µM | > 100 µM | > 100 µM | > 100 µM |  |  | > 100 µM |  |  |  | > 100 µM |  |  |  | > 100 µM |  | > 100 µM
CNC(=O)Nc1ccccc1 | > 100 µM | > 100 µM | > 100 µM | > 100 µM | > 100 µM | > 100 µM |  |  | > 100 µM |  |  |  | > 100 µM |  |  |  | > 100 µM |  | > 100 µM
